Values quoted from earlier work, collected in PubChem BioAssay AID1259409 (Chemical Carcinogenesis Research Information System (CCRIS), 2018).
Where “and” joins values, the source holds several entries; their conditions need not be identical. Equal entries are not always repeated.

Tested on: rodent chemically induced tumor inhibition, incidence and multiplicity
Experiment: CCRIS tumor inhibitor studies
Details: Route [Inhibitor]: ORAL; for tumour outcome (control, treated, inhibition, significance): Promoter: NONE USED; for outcome: Carcinogen: NONE, Strain/Sex: APC/MIN/MALE, Promoter: NONE

Structure (SMILES): CN1C(C(=O)Nc2ccccn2)=C(O)c2ccccc2S1(=O)=O
- tumour outcome (control, treated, inhibition, significance) (Carcinogen: N-BUTYL-N-(4-HYDROXYBUTYL)NITROSAMINE, 3817-11-6, Dose [Inhibitor]: 0, 0.0075% IN DIET FOR 12 WK BEGINNING POST CARCINOGEN TREATMENT (STUDY DURATION: 20 WK), Species: RAT, Strain/Sex: F344/MALE, Target Tissue: Type of Lesion: URINARY BLADDER: TRANSITIONAL CELL CARCINOMA, Dose [Carcinogen]: 0.05% IN DRINKING WATER FOR 8 WK): 10/12 (83%), 4/12 (33%), 60%, p<0.05
- tumour outcome (control, treated, inhibition, significance) (Carcinogen: N-BUTYL-N-(4-HYDROXYBUTYL)NITROSAMINE, 3817-11-6, Dose [Inhibitor]: 0, 15 MG/KG DIET BEGINNING 1 WK PRIOR TO CARCINOGEN TREATMENT AND CONTINUING FOR DURATION OF STUDY (STUDY DURATION: 180, Species: MOUSE, Strain/Sex: BDF/MALE, Target Tissue: Type of Lesion: BLADDER: CARCINOMA, Dose [Carcinogen]: 7.5 MG IN 0.1 ML OF ETHANOL:WATER (20:80) 1/WK FOR 8 WK): 25/63 (40%), 5/69 (7%), 83%, p<0.0001
- tumour outcome (control, treated, inhibition, significance) (Carcinogen: N-BUTYL-N-(4-HYDROXYBUTYL)NITROSAMINE, 3817-11-6, Dose [Inhibitor]: 0, 30 MG/KG DIET BEGINNING 1 WK PRIOR TO CARCINOGEN TREATMENT AND CONTINUING FOR DURATION OF STUDY (STUDY DURATION: 180, Species: MOUSE, Strain/Sex: BDF/MALE, Target Tissue: Type of Lesion: BLADDER: CARCINOMA, Dose [Carcinogen]: 7.5 MG IN 0.1 ML OF ETHANOL:WATER (20:80) 1/WK FOR 8 WK): 28/65 (43%), 7/56 (13%), 70%, p<0.001
- tumour outcome (control, treated, inhibition, significance) (Carcinogen: N-BUTYL-N-(4-HYDROXYBUTYL)NITROSAMINE, 3817-11-6, Dose [Inhibitor]: 0, 75 PPM IN DIET FOR 12 WK BEGINNING POST CARCINOGEN TREATMENT (STUDY DURATION: 20 WK), Species: RAT, Strain/Sex: F344/MALE, Target Tissue: Type of Lesion: URINARY BLADDER: TRANSITIONAL CELL CARCINOMA, Dose [Carcinogen]: 0.05% IN DRINKING WATER FOR 8 WK): 18/20 (90%), 3/19 (16%), 82%, p<0.0001
- tumour outcome (control, treated, inhibition, significance) (Carcinogen: N-METHYL-N-NITROSOUREA, 684-93-5, Dose [Inhibitor]: 130 MG/KG DIET DAILY STARTING 7 D AFTER LAST CARCINOGEN TREATMENT AND CONTINUING FOR 19 WK (STUDY DURATION: 21 WK), Species: RAT, Strain/Sex: SPRAGUE-DAWLEY/MALE, Target Tissue: Type of Lesion: INTESTINES: TUMOR, Dose [Carcinogen]: 0.8% IN 0.5 ML WATER 3 TIMES AT 2 D INTERVALS): 9/9 (100%), 5/10 (50%), 50%, not calculated and 9/9 (100%), 3/9 (33%), 67%, not calculated
- tumour outcome (control, treated, inhibition, significance) (Carcinogen: N-METHYLNITROSOUREA, 684-93-5, Dose [Inhibitor]: 0, 130 MG/KG VEGETABLE DIET (2.5 MG/D) BEGINNING 7 D POST LAST CARCINOGEN TREATMENT AND CONTINUING FOR STUDY DURATION (S, Species: RAT, Strain/Sex: CD-1/MALE, Target Tissue: Type of Lesion: INTESTINE: TUMOR, Dose [Carcinogen]: 0.5 ML OF 0.8% WATER SOLUTION 1/2 D FOR 6 D): 9/9 (100%), 3/9 (33%), 67%, not calculated
- outcome (Dose [Inhibitor]: 12 PPM IN DIET FOR 2 MONTHS (STUDY DURATION: 2 MONTHS), Species: MOUSE, Target Tissue: Type of Lesion: DISTAL SMALL INTESTINE: TUMOR): 10.38, 5.47, 47%, p<0.01
- outcome (Dose [Inhibitor]: 12 PPM IN DIET FOR 2 MONTHS (STUDY DURATION: 2 MONTHS), Species: MOUSE, Target Tissue: Type of Lesion: MIDDLE SMALL INTESTINE: TUMOR): 23.75, 16.20, 32%, not significant
- outcome (Dose [Inhibitor]: 12 PPM IN DIET FOR 2 MONTHS (STUDY DURATION: 2 MONTHS), Species: MOUSE, Target Tissue: Type of Lesion: PROXIMAL SMALL INTESTINE: TUMOR): 7.63, 14.80, -94%, p<0.01
- outcome (Dose [Inhibitor]: 25 PPM IN DIET FOR 2 MONTHS (STUDY DURATION: 2 MONTHS), Species: MOUSE, Target Tissue: Type of Lesion: DISTAL SMALL INTESTINE: TUMOR): 10.38, 2.50, 76%, p<0.001
- outcome (Dose [Inhibitor]: 25 PPM IN DIET FOR 2 MONTHS (STUDY DURATION: 2 MONTHS), Species: MOUSE, Target Tissue: Type of Lesion: MIDDLE SMALL INTESTINE: TUMOR): 23.75, 10.93, 38%, p<0.001
- outcome (Dose [Inhibitor]: 50 PPM IN DIET FOR 2 MONTHS (STUDY DURATION: 2 MONTHS), Species: MOUSE, Target Tissue: Type of Lesion: DISTAL SMALL INTESTINE: TUMOR): 10.38, 2.60, 75%, p<0.001
- outcome (Dose [Inhibitor]: 50 PPM IN DIET FOR 2 MONTHS (STUDY DURATION: 2 MONTHS), Species: MOUSE, Target Tissue: Type of Lesion: MIDDLE SMALL INTESTINE: TUMOR): 23.75, 14.73, 38%, p<0.05
- outcome (Dose [Inhibitor]: 100 PPM IN DIET FOR 2 MONTHS (STUDY DURATION: 2 MONTHS), Species: MOUSE, Target Tissue: Type of Lesion: DISTAL SMALL INTESTINE: TUMOR): 10.38, 1.60, 85%, p<0.001
- outcome (Dose [Inhibitor]: 100 PPM IN DIET FOR 2 MONTHS (STUDY DURATION: 2 MONTHS), Species: MOUSE, Target Tissue: Type of Lesion: MIDDLE SMALL INTESTINE: TUMOR): 23.75, 10.40, 56%, p<0.001
